22 compounds from patent US7786129B2, “Piperazine derivatives of dialkyl oxindoles” (Egis Gyogyszergyar Nyrt, priority 2004, dated 2010) can be followed below.

For one data set, the target named is α1 receptor. Nature of the data set: α1 receptor binding experiment. The note with it: rat isolated frontal cortex preparation, ligand 3H-prazosine 0.3 nM. The protocol: (§1) Receptor bindings—with the exception of the 5-HT2C receptor binding—were determined by using cerebral region preparations of male Wistar rats weighing 120-200 g. For the preparation of 5-HT1A receptor binding frontal cortex preparations were used. The al receptor binding studies were performed from isolated frontal cortex pre-parations. For the 5-HT2C receptor binding experiments choroid plexus of pigs was used. The protein contents of membrane preparations were determined by the method of Lowry (1951).
In the course of 5-HT2C and α1 receptor binding experiments the ligands were ^3H-mesulergin (1.0 nM) and ^3H-prazosine (0.3 nM), respectively. The non-specifically binding ligands were mianserine (1 μM and prazosine (1 μM), respectively.
(§2) The IC50 value is the value of concentration where the difference between total and non-specific binding is 50% in the presence of a determined concentration of a specific ligand.

In the next data set the test system is Male Wistar rats. Briefly: Vogel's drinking conflict test. The note with it: ip, 0.5 h, rat, i.p. 30 min prior to test, increase in tolerated shocks, read-out: MED. Type of data set: in vivo. The protocol: The anxiolytic effect of the compounds according to the invention was investigated on rats according to Vogel's drinking conflict test and elevated plus-maze test (S. Pelow, P. Chopin, S. E. File, J. Briley: Neurosci. Methods 14, p. 149 (1985)).
Male Wistar rats weighing 160-180 g were used for the experiment. The animals were deprived of drinking water for 48 hours and fasted for 24 hours prior to test. The test compounds or vehicle were administered intraperitoneally, 30 min prior to test. […] Following every 20 licks electric shocks (0.7 mA) were applied through the drinking spout during the 5 min test period. The number of punished licks were recorded. The effect of the test compounds was expressed as % increase in numbers of tolerated shocks. Minimal effective doses (MED) were determined for each compound.

The target of a further data set is T1, 5-HT1A receptor (Rattus norvegicus, UniProt P19327).
T1 construct: from tissue; host or cells: rat frontal cortex membrane preparation
T1 sequence (P19327 1-422): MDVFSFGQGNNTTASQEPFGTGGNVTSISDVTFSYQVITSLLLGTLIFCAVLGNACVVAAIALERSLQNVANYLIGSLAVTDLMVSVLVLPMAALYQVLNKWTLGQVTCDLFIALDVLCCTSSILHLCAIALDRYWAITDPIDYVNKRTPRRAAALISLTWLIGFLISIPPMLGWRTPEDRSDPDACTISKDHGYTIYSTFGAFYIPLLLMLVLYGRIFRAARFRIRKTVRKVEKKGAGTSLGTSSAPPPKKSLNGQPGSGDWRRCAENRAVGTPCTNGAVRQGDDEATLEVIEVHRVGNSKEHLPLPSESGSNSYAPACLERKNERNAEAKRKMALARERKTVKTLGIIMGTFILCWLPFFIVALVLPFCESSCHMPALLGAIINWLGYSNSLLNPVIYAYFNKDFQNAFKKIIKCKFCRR
Briefly: 5-HT1A receptor binding. To be noted: rat frontal cortex preparation, ligand tritiated 8-OH-DPAT. The procedure: as §1
5-HT1A receptor binding was measured according to the method of Peroutka (Peroutka, S. J.: J. Neurochem. 47, p. 529 (1986)). The ligand was tritiated 8-hydroxy-N,N-dipropyl-2-aminotetraline (8-OH-DPAT). For the determination of non-specific binding 10 μM serotonin was applied. Incubation […] volume was 250 μl. Incubation was carried out at a temperature of 25 C for 30 minutes. The reaction was terminated by the addition of 9 ml of ice-cold 50 mM TRIS-HCl (pH 7.7) buffer and quick vacuum filtration using Whatman GFIB fibreglass filtering paper. Radioactivity of the filter boards was measured by liquid scintillation spectrometry.
as §2

Molecules are shown by their SMILES. Structures can show the parent of a compound that is named as a salt. Bounds are passed on as bounds.

The term IC50 denotes the concentration that inhibits the measured activity by half. Broadly, the melting point is the temperature, or range, at which the solid turns liquid. In turn, `CCC1(CCCCN2CCN(c3ccccn3)CC2)C(=O)Nc2ccc(Br)cc21` (centres unmarked) [Example 59, 5-Bromo-3-ethyl-3-[4-(4-pyridin-2-yl-piperazin-1-yl)-butyl]-1,3-dihydro-2H-indol-2-one] showed a melting point of 114 to 115 °C. Besides, the half-maximal inhibitory concentration (IC50) on α1 receptor was less than 100 nM.
For `CCC1(CCCCN2CCN(c3cccc(Cl)c3)CC2)C(=O)Nc2ccccc21` (centres unmarked) [Example 60, 3-{4-[4-(3-Chlorophenyl)-piperazin-1-yl]-butyl}-3-ethyl-1,3-dihydro-2H-indol-2-one-H2O—HCl-isopropanol (1:1:1:1)], at α1 receptor, the half-inhibitory concentration (IC50) was less than 100 nM.
The compound `CC(C)CC1(CCCCN2CCN(c3ccccn3)CC2)C(=O)Nc2ccccc21` (centres unmarked) [Example 62, 3-Isobutyl-3-[4-(4-pyridin-2-yl-piperazin-1-yl)-butyl]-1,3-dihydro-2H-indol-2-one] yielded a melting point of 158 to 159 °C. Also, the 50% inhibitory concentration (IC50) at α1 receptor was less than 100 nM.
Take `CCC1(CCCCN2CCN(c3cccc4c3OCCO4)CC2)C(=O)Nc2ccccc21` (centres unmarked) [Example 63, 3-{4-[4-(2,3-Dihydrobenzo[1,4]dioxin-5-yl)-piperazin-1-yl]-butyl}-3-ethyl-1,3-dihydro-2H-indol-2-one]: the melting point fell in the range of 169 to 170 °C. This compound came in with an IC50 on α1 receptor of less than 50 nM.
On the same counts, the results for `CC(C)CC1(CCCCN2CCN(c3cccc4c3OCCO4)CC2)C(=O)Nc2ccccc21` (centres unmarked) [Example 64, 3-{4-[4-(2,3-Dihydrobenzo[1,4]dioxin-5-yl)-piperazin-1-yl]-butyl}-3-isobutyl-1,3-dihydro-2H-indol-2-one] are 152 to 154 °C and less than 50 nM.
Turning to `CCC1(CCCCN2CCN(c3ccccc3OC)CC2)C(=O)Nc2ccccc21` (centres unmarked) [Example 69, 3-Ethyl-3-{4-[4-(2-methoxyphenyl)-piperazin-1-yl]-butyl}-1,3-dihydro-2H-indol-2-one monooxalate], the minimal effective dose in the data set with Male Wistar rats stood at 10 mg/kg.
Take `CCC1(CCCCN2CCN(c3ccccn3)CC2)C(=O)Nc2ccccc21` (centres unmarked) [Example 71, 3-Ethyl-3-[4-(4-pyridin-2-yl-piperazin-1-yl)-butyl]-1,3-dihydro-2H-indol-2-one]: the minimal effective dose in the data set with Male Wistar rats was found to be 20 mg/kg.
For the compound `CC(C)CC1(CCCCN2CCN(c3cccc(Cl)c3)CC2)C(=O)Nc2ccccc21` (centres unmarked) [Example 75, 3-{4-[4-(3-Chlorophenyl)-piperazin-1-yl]-butyl}-3-isobutyl-1,3-dihydro-2H-indol-2-one monohydrochloride], the minimal effective dose in the data set with Male Wistar rats amounted to 10 mg/kg. In addition, the IC50 on 5-HT1A receptor was more than 200 nM.
`CCC1(CCCCN2CCN(c3cccc(Cl)c3)CC2)C(=O)Nc2c(Cl)cc(Cl)cc21` (centres unmarked) [Example 79, 5,7-Dichloro-3-[4-[4-(3-chlorophenyl)-piperazin-1-yl]-butyl]-3-ethyl-1,3-dihydro-2H-indol-2-one] registered a melting point of 182 to 183 °C. At 5-HT1A receptor, this compound came in with an IC50 of more than 400 nM.
On the same counts, the results for `CCC1(CCCCN2CCN(c3ccc(Cl)cc3)CC2)C(=O)Nc2cc(F)ccc21` (centres unmarked) [Example 86, 3-{4-[4-(4-Chlorophenyl)-piperazin-1-yl]-butyl}-3-ethyl-6-fluoro-1,3-dihydro-2H-indol-2-one] are 145 to 147 °C and more than 300 nM.
At 5-HT1A receptor, `CCC1(CCCCN2CCN(c3cccc(Cl)c3)CC2)C(=O)Nc2cc(F)c(Cl)cc21` (centres unmarked) [Example 89, 5-Chloro-3-{4-[4-(3-chlorophenyl)-piperazin-1-yl]-butyl}-3-ethyl-6-fluoro-1,3-dihydro-2H-indol-2-one monohydrochloride] had an IC50 of more than 300 nM.
Still for that read-out and setting: as for `CCC1(CCCCN2CCN(c3ccc(Cl)c(C(F)(F)F)c3)CC2)C(=O)Nc2ccccc21` (centres unmarked) [Example 96, 3-{4-[4-(4-Chloro-3-trifluoromethyl-phenyl)-piperazin-1-yl]-butyl}-3-ethyl-1,3-dihydro-2H-indol-2-one monohydrochloride], the figure is more than 400 nM.
Turning to `CCC1(CCCCN2CCN(c3cc(Cl)cc(Cl)c3)CC2)C(=O)Nc2ccc(F)cc21` (centres unmarked) [Example 114, 3-{4-[4-(3,5-dichlorophenyl)-piperazine-1-yl]-butyl}-3-ethyl-5-fluoro-1,3-dihydro-2H-indol-2-one], the melting point fell in the range of 122 to 124 °C.
`CCC1(CCCCN2CCN(c3ccc(Cl)c(Cl)c3)CC2)C(=O)Nc2ccc(F)cc21` (centres unmarked) [Example 115, 3-{4-[4-(3,4-dichlorophenyl)-piperazin-1-yl]-butyl}-3-ethyl-5-fluoro-1,3-dihydro-2H-indol-2-one] gave a melting point of 152 to 155 °C.
The same measure, in the same setting: as for `CCC1(CCCCN2CCN(c3ccc(F)cc3)CC2)C(=O)Nc2c(Cl)cc(F)cc21` (centres unmarked) [Example 119, 7-chloro-3-ethyl-5-fluoro-3-{4-[4-(4-fluorophenyl)-piperazin-1-yl]-butyl}-1,3-dihydro-2H-indol-2-one], the figure is 161 to 162 °C; as for `CCC1(CCCCN2CCN(c3ccc(Cl)cc3)CC2)C(=O)Nc2ccc(Cl)cc21` (centres unmarked) [Example 121, 5-chloro-3-{4-[4-(4-chlorophenyl)-piperazin-1-yl]-butyl}-3-ethyl-1,3-dihydro-indol-2-one], 186 to 188 °C.
Same read-out and setting: in the case of `CCC1(CCCCN2CCN(c3ccc(Cl)cc3)CC2)C(=O)Nc2cc(F)c(Cl)cc21` (centres unmarked) [Example 122, 5-chloro-3-{4-[4-(4-chlorophenyl)-piperazin-1-yl]-butyl}-3-ethyl-6-fluoro-1,3-dihydro-2H-indol-2-one] it was 194 to 197 °C.
Still for that read-out and setting: in the case of `CCC1(CCCCCN2CCN(c3ccc(Cl)cc3)CC2)C(=O)Nc2ccccc21` (centres unmarked) [Example 123, 3-{5-[4-(4-chlorophenyl)-piperazin-1-yl]-pentyl}-3-ethyl-1,3-dihydro-2H-indol-2-one] it was 142 to 143 °C.
On to `CCC1(CCCCN2CCN(c3ccc(Cl)c(Cl)c3)CC2)C(=O)Nc2c(Cl)cc(Cl)cc21` (centres unmarked) [Example 124, 5,7-dichloro-3-{4-[4-(3,4-dichlorophenyl)-piperazin-1-yl]-butyl}-3-ethyl-1,3-dihydro-2H-indol-2-one], for which the melting point is 164 to 165 °C.
The compound `CCC1(CCCCCN2CCN(c3ccc(Cl)cc3)CC2)C(=O)Nc2c(Cl)cc(Cl)cc21` (centres unmarked) [Example 125, 5,7-Dichloro-3-{5-[4-(4-chlorophenyl)-piperazin-1-yl]-pentyl}-3-ethyl-1,3-dihydro-2H-indol-2-one] yielded a melting point of 145 to 148 °C.
Same read-out and setting: in the case of `CCC1(CCCCN2CCN(c3ccc(F)cc3Cl)CC2)C(=O)Nc2ccccc21` (centres unmarked) [Example 126, 3-{4-[4-(2-chloro-4-fluorophenyl)-piperazin-1-yl]-butyl}-3-ethyl-1,3-dihydro-2H-indol-2-one] it was 125 to 126 °C.
`CC1(CCCCN2CCN(c3ccc(Cl)cc3)CC2)C(=O)Nc2c(Cl)cc(Cl)cc21` (centres unmarked) [Example 128, 5,7-dichloro-3-{4-[4-(4-chlorophenyl)-piperazin-1-yl]-butyl}-3-methyl-1,3-dihydro-2H-indol-2-one] showed a melting point of 168 to 170 °C.
